According to patent publication US20120035161A1, “Novel Compositions and Methods of Treating Diseases Using the Same” (CORRIDOR PHARMACEUTICALS, INC., priority 2006, published 2012):
Where “and” joins values, the source holds several entries; their conditions need not be identical. Identical values can stand only once.

Legend:
HepG2 cells = assay: Phospholipidosis assay (LipidTox); type: cell-based
Protocol: (§1) More recently, fluorescent dyes have been utilized to assess phospholipidosis in a high throughput manner (Nioi et al., 2007, Toxicol. Sci. 99:162-173). In this assay, HepG2 cells are plated in MEM growth medium and allowed to incubate overnight. Cells are treated with test compounds that have been added to the assay medium (10% fetal bovine serum) containing LipidTox (fluorescent lipophilic dye). After 48 h incubation, cells are fixed and stained with Hoechst. Plates are scanned with an automated fluorescent microscope (Thermo Fisher Cellomics ArrayScan 4.5) and image analysis is used to quantitate cell number and phospholipid accumulation. Compounds are tested in triplicate at multiple concentrations. Three reference compounds, sertraline, perhexyline, and meclizine (high, medium, and low inducers of phospholipidosis, respectively) are included in each assay. The data is expressed as fold induction over background and the % of the positive control (sertraline), which is calculated using the following equation:
(§2) % positive control=100×(RFUcompound−RFUbackground)/(RFUsertaline−RFUbackground),
(§3) where RFU=Relative Fluorescence Unit

[1] = Phospholipidosis assay (LipidTox); type: cell-based; conditions: human
Protocol: as §1, §2, §3

[2] = test system: Serotonin (5-Hydroxytryptamine) 5-HT1, Non-Selective; assay: Assay 271000 radioligand binding, 5-HT1 non-selective; design: species or system Wistar Rat
Protocol: (§4) The methods employed in this study have been adapted from the scientific literature to maximize reliability and reproducibility. Reference standards were run as an integral part of each assay to ensure the validity of the results obtained. Assays were performed under conditions as described below. Where presented, IC50 values were determined by a non-linear, least squares regression analysis using the Data Analysis Toolbox (MDL Information Systems, San Leandro, Calif., USA). Where inhibition constants (Ki) are presented, the Ki values were calculated using the equation of Cheng and Prusoff (Cheng, Y., Prusoff, W. H., Biochem. Pharmacol. 22:3099-3108, 1973) using the observed IC50 of the tested compound, the concentration of radioligand employed in the assay, and historical values for the KD of the ligand. Where presented, the Hill coefficient (nu), defining the slope of the competitive binding curve, was calculated using the Data Analysis Toolbox.

[3] = biological target: T1, Serotonin (5-Hydroxytryptamine) 5-HT1A (Homo sapiens, UniProt P08908); assay: Radioligand binding, 5-HT1A ([3H] 8-OH-DPAT)
T1 construct: expressed in transfected cells; host or cells: CHO cells
T1 sequence (P08908 1-422): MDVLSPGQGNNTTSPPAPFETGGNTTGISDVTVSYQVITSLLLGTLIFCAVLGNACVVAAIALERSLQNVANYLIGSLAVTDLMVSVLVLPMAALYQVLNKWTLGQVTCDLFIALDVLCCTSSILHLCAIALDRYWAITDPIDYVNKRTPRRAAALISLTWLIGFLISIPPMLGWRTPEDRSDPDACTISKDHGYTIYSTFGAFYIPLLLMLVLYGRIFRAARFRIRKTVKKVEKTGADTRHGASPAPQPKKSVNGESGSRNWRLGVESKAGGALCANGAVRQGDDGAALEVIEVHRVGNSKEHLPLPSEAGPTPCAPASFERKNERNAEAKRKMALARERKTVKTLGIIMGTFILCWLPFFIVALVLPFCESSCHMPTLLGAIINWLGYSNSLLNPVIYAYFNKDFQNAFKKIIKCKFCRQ
Protocol: as §4

[4] = biological target: T2, Serotonin (5-Hydroxytryptamine) 5-HT1B (Rattus norvegicus, UniProt P28564); assay: Assay 271200 radioligand binding, 5-HT1B; design: species or system Wistar Rat
T2 construct: from tissue
Protocol: as §4

[5] = test system: Serotonin (5-Hydroxytryptamine) 5-HT2, Non-Selective; assay: Assay 271600 radioligand binding, 5-HT2 non-selective; design: species or system Wistar Rat
Protocol: as §4

TNF-α = assay: Model of LPS-mediated cytokine production, serum TNF-α; type: in vivo, CD1:ICR mice; conditions: for TNFα inhibition, dose-response study: IP, up to a dose of 5 mg/kg
Protocol: (§5) Both ICI-685 and ICI-735 were formulated in water. For the time course study, both drugs were formulated at a concentration of 1 mg/ml and dosed 10 ml/kg to produce a dose of 10 mg/kg. For the dose-response study, drug was formulated at concentrations of 0.05, 0.2 and 0.5 mg/ml and dosed at a volume of 10 ml/kg to produce doses of 0.5, 2 and 5 mg/kg, respectively. Animals were dosed IV or IP.
CD1:ICR mice were obtained from Harlan (Indianapolis, Ind.) at 6 weeks of age. Animals were housed 5 per cage, kept on a 12 hr light dark cycle and fed food and water ad libitum. Animals were tested at 8-10 weeks of age.
(§6) Lipopolysaccharide (heat killed E. coli 0127:B5; Sigma Aldrich) was prepared in distilled water at a concentration of 0.025 mg/ml. LPS was dosed at a volume of 10 ml/kg (IP) to produce a final dose of 0.25 mg/kg (approximately 7.5 μg/mouse). Drugs were dosed prior to LPS administration as indicated elsewhere herein. Blood was collected by retro-orbital eye bleed 90 minutes after LPS administration, Serum was prepared from blood and TNF-α and IL-1β levels were measured by using the OPT-EIA mouse TNF-α and IL-1β ELISA kits (BD Biosciences) as per directions of the manufacturer.
The first study was designed to determine the optimal route of administration and the optimal pre-treatment time. Two pre-dose time course studies were conducted. The first (Study 1A) was conducted with 3 pre-dose time points (2, 6 and 18 hrs). The second was conducted at 0, 1 and 2 hr predose time points. For both studies, drug was dosed IP or IV.
Using data from the first study, a second study was conducted that was designed to measure dose-response activity of each compound. Compounds were tested at doses of […]., 2.0 and 5 mg/kg using the route and pre-treatment time that produced the best activity.
as §5, with “Compounds ICI-715, ICI-824, ICI-953” for “Both ICI-685”, “ICI-954” for “ICI-735”, “study,” for “study, both”, “drugs were” for “drug was”
as §6, with “mg/ml,” for “mg/ml.”, “[…]).” for “μg/mouse).”, “above.” for “elsewhere herein.”, “administration.” for “administration,”
The first study was designed to determine the optimal route of administration and the optimal pre-treatment time. One pre-dose time course was conducted (for all compounds) with compounds administered at 0, 1 and 2 hrs prior to LPS treatment. For both studies, drug was dosed IP or IV. The IP study and IV study were conducted on separate days.
Using data from the first study, a second study was conducted that was designed to measure dose-response activity of each compound. Compounds were tested at doses of 0.5, 2.0 and 5 mg/kg using the route and pre-treatment time that produced the best activity.

[6] = test system: cryopreserved mixed gender human hepatocytes; assay: Hepatocyte stability assay; type: in vitro ADME
Protocol: Test compounds (5 μM) were incubated with cryopreserved mixed gender human hepatocytes pooled from at least 3 donors. Cell viability of hepatocytes was assessed by a Trypan Blue assay prior to the initiation of the stability assay. The final hepatocyte cell density was 1.5×10^6 viable cells/mL, Samples were taken at 2 time points: 0 and 60 minutes. As positive controls, testosterone (20 μM) and 7-hydroxy-coumarin (100 μM) were incubated and sampled at 5 time points: 0, 15, 30, 60, and 120 minutes. Aliquots were removed and combined (50/50) with acetonitrile to terminate the reaction. Samples were mixed for 10 minutes and centrifuged. The supernatants were transferred to vial for analysis by HRMS. In this assay, both test compound and a des-glycine metabolite (M1) are quantified based on peak area response ratios.
The enzymatic activities of the human cryopreserved hepatocytes used in this study were verified in parallel by determining the disappearance of testosterone (expressed as half-life) and the formation of 7-hydroxycoumarin glucuronide and 7-hydroxycoumarin sulfate (expressed as a formation rate).

[7] = T = 60 minutes, 5 μM test compound

T2 sequence (P28564 whole entry): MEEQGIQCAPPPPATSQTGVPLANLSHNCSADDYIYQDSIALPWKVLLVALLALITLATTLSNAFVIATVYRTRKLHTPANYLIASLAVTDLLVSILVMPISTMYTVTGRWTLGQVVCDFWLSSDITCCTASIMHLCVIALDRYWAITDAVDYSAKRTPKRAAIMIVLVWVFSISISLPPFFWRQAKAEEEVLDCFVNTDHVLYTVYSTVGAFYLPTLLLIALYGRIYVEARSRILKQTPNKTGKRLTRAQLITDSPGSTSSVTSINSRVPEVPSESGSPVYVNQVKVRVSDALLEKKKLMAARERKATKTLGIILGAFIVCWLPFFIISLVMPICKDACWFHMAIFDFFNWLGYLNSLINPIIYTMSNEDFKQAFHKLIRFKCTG

% INHIBITION ([2]; 0.1 μM) | % INHIBITION ([2]; 10 μM) | % INHIBITION ([3]; 0.1 μM) | % INHIBITION ([3]; 10 μM) | % INHIBITION ([4]; 0.1 μM) | % INHIBITION ([4]; 10 μM) | % INHIBITION ([5]; 0.1 μM) | % INHIBITION ([5]; 10 μM) | SMILES | further results
 |  |  |  |  |  |  |  | C1CCC(C(CC2CCCCN2)C2CCCCC2)CC1 (stereo not shown) [Perhexil, perhexyline, reference compound] | % Cytotoxicity (HepG2 cells; 3 μM, 48 h): 10%; Fold Induction (HepG2 cells; 3 μM, 48 h): 38; % Positive Control (HepG2 cells; 3 μM, 48 h, positive control sertraline): 72%
 |  |  |  |  |  |  |  | O=CNCC(=O)NCCN1CCN(CCCN2c3ccccc3Sc3ccc(C(F)(F)F)cc32)CC1 [Compound 37b, 2-formamido-N-(2-(4-(3-(2-(trifluoromethyl)-10H-phenothiazin-10-yl)propyl)piperazin-1-yl)ethyl)acetamide] | cytotoxicity at 48 h, 1 µM [1]: 32%; cytotoxicity at 48 h, 3 µM [1]: 17%; cytotoxicity at 48 h, 10 µM [1]: 46%; cytotoxicity at 48 h, 30 µM [1]: 100%; fold induction at 48 h, 1 µM [1]: 1; fold induction at 48 h, 3 µM [1]: 4; fold induction at 48 h, 10 µM [1]: 12; cytotoxicity to HepG2 cells (HepG2 cells): less cytotoxicity; propensity to form phospholipidosis (HepG2 cells): lower propensity; % Positive Control (HepG2 cells; human, 48 h, 1 μM): 0.2%; % Positive Control (HepG2 cells; human, 48 h, 3 μM): 5.8%; % Positive Control (HepG2 cells; human, 48 h, 10 μM): 21.3%
−20% | 3% | 4% | 69% | −3% | 0% | 38% | 94% | NCCN1CCC(CCN2c3ccccc3Sc3ccc(C(F)(F)F)cc32)CC1 [ICI-1008] | 
15% | 62% |  |  |  |  | 18% | 83% | CN(C)S(=O)(=O)c1ccc2c(c1)N(CCCN1CCN(CCN)CC1)c1ccccc1S2 [ICI-715] | inhibition at 0.1 µM ([3]; 0.1 μM): 5%; inhibition at 10 µM ([3]; 10 μM): 87%; inhibition at 0.1 µM ([4]; 0.1 μM): 23%; inhibition at 10 µM ([4]; 10 μM): 90%; inhibition of TNFα (TNF-α; dose-response, all doses tested 0.5 to 5 mg/kg, IV): ≥ 50%
 |  |  |  |  |  |  |  | CC(C)(N)C(=O)NCCN1CCN(CCCN2c3ccccc3Sc3ccc(C(F)(F)F)cc32)CC1 [Compound 36a, 2-Amino-2-methyl-N-(2-(4-(3-(2-(trifluoromethyl)-10H-phenothiazin-10-yl)propyl)piperazin-1-yl)ethyl)propanamide] | Relative Level (%) ([6]; T = 0 minutes, 5 μM test compound): 97.3% and 102.8%; Peak Areas [6, 7]: 3.42E+06 and 3.82E+06; Relative Level (%) [6, 7]: 99.0% and 109.1%; susceptibility to the metabolic transformation to the metabolite M1 ([6]; compared with ICI-735): less susceptible
−10% | −1% | 5% | 54% | 7% | 2% | 16% | 71% | NCCN1CCN(CCCCN2c3ccccc3Sc3ccc(C(F)(F)F)cc32)CC1 [ICI-953] | TNFα inhibition, dose-response study (TNF-α): ineffective
−14% | 11% |  |  |  |  | 28% | 84% | FC(F)(F)c1ccc2c(c1)N(CCCC1CCNCC1)c1ccccc1S2 [ICI-824] | inhibition at 0.1 µM ([3]; 0.1 μM): 2%; inhibition at 10 µM ([3]; 10 μM): 53%; inhibition at 0.1 µM ([4]; 0.1 μM): 2%; inhibition at 10 µM ([4]; 10 μM): 6%; TNFα inhibition, dose-response study (TNF-α): ineffective
−2% | 10% |  |  |  |  | 15% | 85% | CNCC(=O)NCCN1CCC(CCCN2c3ccccc3Sc3ccc(C(F)(F)F)cc32)CC1 [ICI-849] | inhibition at 0.1 µM ([3]; 0.1 μM): 18%; inhibition at 10 µM ([3]; 10 μM): 65%; inhibition at 0.1 µM ([4]; 0.1 μM): -7%; inhibition at 10 µM ([4]; 10 μM): -2%
 |  |  |  |  |  |  |  | CN[C@H]1CC[C@@H](c2ccc(Cl)c(Cl)c2)c2ccccc21 [Sertaline, sertraline, reference compound] | cytotoxicity at 48 h, 3 µM [1]: 15%; fold induction at 48 h, 3 µM [1]: 52; % Positive Control (HepG2 cells; human, 48 h, 3 μM): 100%
−12% | 24% | 2% | 48% | 8% | 48% | 51% | 87% | FC(F)(F)c1ccc2c(c1)N(CCC1CCNCC1)c1ccccc1S2 [ICI-1007] | 
 |  |  |  |  |  |  |  | Cc1cccc(CN2CCN(C(c3ccccc3)c3ccc(Cl)cc3)CC2)c1 (stereo not shown) [Meclizine, meclizine, reference compound] | cytotoxicity at 48 h, 25 µM [1]: 0%; fold induction at 48 h, 25 µM [1]: 13; % Positive Control (HepG2 cells; human, 48 h, 25 μM): 24%

SMILES | % INHIBITION ([2]; 0.1 μM) | % INHIBITION ([2]; 10 μM) | % INHIBITION ([3]; 0.1 μM) | % INHIBITION ([3]; 10 μM) | % INHIBITION ([4]; 0.1 μM) | % INHIBITION ([4]; 10 μM) | % INHIBITION ([5]; 0.1 μM) | % INHIBITION ([5]; 10 μM) | further results
NCC(=O)NCCN1CCN(CCCCN2c3ccccc3Sc3ccc(C(F)(F)F)cc32)CC1 [ICI-954] | −3% | 18% | 6% | 56% | 4% | −1% | 21% | 89% | TNFα inhibition, dose-response study (TNF-α): ineffective
